Data: patent US20150017638A1, “METHODS FOR ASSESSING RISK FOR CANCER USING BIOMARKERS” (THE TRUSTEES OF THE UNIVERSITY OF PENNSYLVANIA, priority 2012, published 2015)

Experiments:
[1] = system: Primary cell lines derived from PanIN mice (sorted YFP+ cells); experiment: In vitro exposure of PanIN-derived primary cell lines to cerulein, dexamethasone, TGF-b; type: cell-based, mouse; conditions: 48 hr; for cell morphology: dexamethasone 1 mM, vs DMSO vehicle
Method: Cells destined for transcriptional analysis were sorted into either RLT buffer (QIAGEN) or Trizol LS Reagent (Invitrogen). RNA was extracted from samples >1,000 cells using the RNEasy kit (QIAGEN). RNA from samples with fewer cells, including all sorted blood cell samples, was isolated using the PicoPure Extraction kit as directed (Arcturus). qPCR was performed as previously described (Zong et al., 2009), and primary sequences used are listed in Table 1, below. Relative expression was determined after adjusting for GAPDH. Genomic DNA was extracted from sorted CPCs pooled from three tumor-bearing mice using phenol or DNeasy kit (QIAGEN).
Primary cell lines were derived from PanIN mice after sorting pancreas single-cell suspensions for YFP^+ cells. Sorted YFP^+ cells were then placed in six-well plates in pancreatic ductal cell media (Schreiber et al., 2004) and passaged at 80% confluence, Cells were transferred to multiple 6-well plates (250,000 cells per well) in pancreatic ductal cell media containing DMSO vehicle, cerulein (100 nM, Sigma), dexamethasone (Dex, 1 mM, Sigma), TGF-b (5 ng/ml, Peprotech), or Dex (1 mM) and TGF-b (5 ng/ml). Morphology was photodocumented at 6 hr, 24 hr, and 48 hr after treatment using an inverted microscope. After 48 hr of exposure, cells were counted and RNA isolated, cDNA synthesized, and qPCR performed as described above.

murine PanIN disease = conditions: Guerra et al., 2011; cited from earlier work
[2] = system: CY, KCY, PanIN PKCY, and PDAC PKCY mice; experiment: Experimental acute pancreatitis elicited with cerulein in lineage-labeled mice; type: in vivo, mouse
From the text: The behavior of mutant strains bearing various allele combinations of Pdx1-Cre KrasG12D, p16/p19fl, and p53fl has been described previously (Aguirre et al., 2003; Bardeesy et al., 2006; Hingorani et al., 2003; and U.S. patent application Ser. No. 11/503,499, the contents of which are expressly incorporated herein by reference). To perform lineage tracing, a RosaYFP reporter allele was introduced into these mutant backgrounds to generate a panel of compound mutant strains: Pdx1-Cre; RosaYFP (“CY”), Pdx 1-Cre; KrasG12D; RosaYFP (“KCY”), Pdx1-Cre; KrasG12D; p16/p19fl/+; RosaYFP (“IKCY”), and Pdx1-Cre; KrasG12D; p53fl/+; RosaYFP (“PKCY”). All experiments involving the KCY model employed mice between 8 and 10 weeks of age. For studies involving mice harboring only PaniN lesions by histologic analysis (“PanIN” mice), PKCY animals were sacrificed at 8-10 weeks of age based on prior observations regarding tumor progression (Bardeesy et al., 2006); no PKCY mice (out of 18 examined) had evidence of carcinoma at this time point. […] More than 90% of IKCY and PKCY mice were 34-38 weeks of age or 16-20 weeks of age, respectively, at the time of sacrifice.
Experimental pancreatitis was elicited with cerulein as described (Siveke et al., 2008), and specimens were obtained after 3 days of treatment. Three to four CY, KCY, PanIN PKCY, and PDAC PKCY were used for cerulein and vehicle (PBS) treated cohorts. Orthotopic transplantations were performed on NOD/SCID mice by injecting 1×10^5 sorted pancreas cells as previously described (Mohammad et al., 1998). PKCY PanIN mice aged 10 weeks were treated with seven daily injections of dexamethasone or vehicle (DMSO) as described (Stairs et al., 2011) and analyzed 24 hours later.
For experiments involving flow cytometry and sorting of pancreatic cells, at least 25% of the tissue was saved for histologic analysis and was processed and stained. To create a single cell suspension, pancreatic tissue was rinsed vigorously in cold DMEM/F12 three times before mincing with scissors (approximately 100 chops). The minced pieces were then incubated in preheated collagenase with protease inhibitors (2 mg/ml; Sigma) for 20 min at 37° C. Vigorous vortexing was performed every 5 min during this incubation. The dissolved pieces were then poured over a […] cell strainer. The flow through was resuspended in cold 2% FCS/DMEM/F12, centrifuged, washed once, and kept on ice in the dark. Enriched blood samples or dissociated pancreatic specimens were stained for various markers prior to flow cytometric analysis (FACS Calibur, BD, or Accuri C6, Accuri Cytometers) or flow sorting (FACSVantage with FACSDiva option, BD). For analysis and sorting based on endogenous YFP and surface markers, primary antibodies (1:100) and secondary antibodies (1:50) were incubated with cells in 10% FCS/DMEM/F12 for 20 min at 4° C. Primary PanIN cell lines from IKCY and PKCY mice were used as positive controls. Isotype controls were also run. For intracellular staining of CPCs and pancreas cells, cells were washed with 10% FCS/DMEM/F12 before washing in freshly prepared 13fixation/permeabilization solution (Fix/Perm; eBioscience) followed by incubation in Fix/Perm for 30 min in the dark at 4° C. Cells were washed twice with 13 permeabilization buffer (Perm; eBioscience) before incubation in Block-P solution (10% FCS in freshly prepared Perm). After 15 min at 4° C., primary antibodies were added and incubated for an additional 20 min on ice. […]

[3] = cerulein 100 nM, Dex 1 mM, triplicate

## C[C@@H]1C[C@H]2[C@@H]3CCC4=CC(=O)C=C[C@]4(C)[C@@]3(F)[C@@H](O)C[C@]2(C)[C@@]1(O)C(=O)CO [dexamethasone]
[1]; [3]
  expression of a panel of epithelial or mesenchymal markers (qPCR): no effect

## CC1=C(CC(=O)O)c2cc(F)ccc2/C1=C\c1ccc([S+](C)[O-])cc1 (stereo not shown) [sulindac]
Murine PanIN disease
  PanIN disease: regression of murine PanIN disease

## TGF-b
[1]; TGF-b 5 ng/ml, triplicate
  expression of epithelial markers (qPCR): significant downregulation of epithelial markers
  expression of mesenchymal markers Zeb1 and N-cad (qPCR): increase in the expression of the mesenchymal markers Zeb1 and N-cad
[1]; cerulein 100 nM, TGF-b 5 ng/ml
  cell morphology: acquisition of a fibroblast-like morphology

## cerulein
[2]; 8-week-old KCY mice, 3 days of cerulein vs vehicle
  circulating pancreatic cell (CPC) number: marked elevation in circulating cells
[2]; KCY mice, 8-week-old, 3 days of cerulein treatment vs vehicle
  pancreas histology (ADMI and PanIN formation): formation of ADMIs and accelerated PanIN formation
[2]; PDAC mice, cerulein compared to vehicle
  frequency of EMT in pancreas: little change in the frequency of EMT
[2]; across all groups (CY, KCY, PKCY PanIN, PDAC), p=0.014 by two-way ANOVA
  circulating pancreatic cell (CPC) number: significant increase in CPC number
[2]; control (CY) and KCY mice
  EMT (YFP+Zeb1+ cells) in pancreas: emergence of YFP^+Zeb1^+ cells
[1]; [3]
  expression of a panel of epithelial or mesenchymal markers (qPCR): no effect
  proliferation: no effect on proliferation
[1]; cerulein 100 nM, TGF-b 5 ng/ml
  cell morphology: identical morphology as vehicle-treated cells
